Conditions: for log10 BCF / log10 biotransformation half-life (days): fish

SMILES	boiling point [°C]	melting point [°C]	further results
CCCC1CCCC(C)C1 (stereo not given)	164	–	–
N#CCC(=O)c1ccc(N)cc1	–	159	–
COc1ccccc1O	205	32	log10 Henry constant (atm·m³/mol): -5.92; log10 Koc (L/kg): 1.56; log10 vapour pressure (mmHg): -0.987; ready biodegradability: readily biodegradable
COCC(=O)c1ccccc1	245	8	–
CCOC(CC)OCC	123	–	–
CC(=O)O[C@H]1C[C@@]2(C)[C@@H](C[C@@H](O)[C@H]3[C@@]4(C)CC[C@@H](O)[C@@H](C)[C@@H]4CC[C@@]32C)/C1=C(\CCC=C(C)C)C(=O)O	–	192	–
N#CCc1ccc(N)cc1	312	46	–
c1ccc(Nc2ccc(Nc3ccccc3)cc2)cc1	–	–	log10 vapour pressure (mmHg): -8.2; ready biodegradability: not readily biodegradable; log10 BCF: 3.12
CC(=O)Nc1ccc(C)cc1	307	152	–
CCCCCCCCCCCC#N	277	4	log10 vapour pressure (mmHg): -2.63
C=CC(O)CC (stereo not given)	115	–	–
O=C(O)C(Cc1ccccc1)Cc1ccccc1	–	90	–
O=C(O)c1ccccc1Cc1ccccc1	–	118	–
Clc1c(Br)c(Br)c2c(c1Br)Oc1c(Br)c(Br)c(Cl)c(Br)c1O2	–	385	log10 vapour pressure (mmHg): -12.5
CC(F)(F)CCl	55	-56.2	–
CCCCCCCCCC(=O)O	269	31.9	log10 vapour pressure (mmHg): -3.44; ready biodegradability: readily biodegradable
CCCC(C)C(CC)CC (stereo not given)	165	–	–
C=CC	-48	-185	log10 Henry constant (atm·m³/mol): -0.708; log10 vapour pressure (mmHg): 3.94
CCCCOC	70.1	-116	log10 vapour pressure (mmHg): 2.14
C#CCCCCCCCCCCCCC	268	10	–
C=C(C)CCCC	92	-103	log10 vapour pressure (mmHg): 1.78

SMILES	boiling point [°C]	melting point [°C]	further results
CCCCCCCCN(C)C	191	-57	–
CCCCCCCC/C=C\CCCCCCCC(=O)OCC(O)CO (stereo not given)	–	35	ready biodegradability: readily biodegradable
Cc1ccc(Nc2ccc(C)cc2)cc1	330	79.8	–
CN(C)c1ccc(N)cc1	263	53	–
O=C1C2CC=CCC2C(=O)N1SC(Cl)(Cl)Cl (stereo not given)	–	178	log10 Koc (L/kg): 2.3; log10 vapour pressure (mmHg): -7.05; ready biodegradability: not readily biodegradable; log10 BCF: 1.98
COc1ccc(C=O)cc1OC	281	43	ready biodegradability: readily biodegradable
FC1(F)C(F)(F)C(F)(F)C2(F)C(F)(C1(F)F)C(F)(F)C(F)(F)C1(F)C(F)(F)C(F)(F)C(F)(F)C(F)(F)C12F (stereo not given)	210	-20	–
O=[N+]([O-])c1ccc(O)c2ncccc12	–	180	–
C#CC(C)(O)C(C)C (stereo not given)	134	–	–
CCC(C)(CO)CO	226	40.3	–
CC1CCCCC1NC(=O)Nc1ccccc1 (stereo not given)	–	136	log10 Koc (L/kg): 2.31; log10 vapour pressure (mmHg): -8.4
C=Cc1cc(C)ccc1C	–	-35	log10 vapour pressure (mmHg): 0
Brc1ccc(Oc2ccccc2)cc1	310	18.7	log10 Koc (L/kg): 4.23; log10 vapour pressure (mmHg): -2.82
CCCOC(=O)NCCCN(C)C.Cl	–	64.2	log10 vapour pressure (mmHg): -6.54
CCOCC(C)C	81	–	–
CC1=C(C(=O)O)CCC1(C)C	256	135	–
Clc1cc2oc3cc(Cl)c(Cl)cc3c2cc1Cl	–	227	log10 Henry constant (atm·m³/mol): -4.78; log10 Koa: 10; log10 BCF: 3.61; log10 biotransformation half-life (days): 0.56
O=S(=O)(Cl)C(F)(F)F	30.5	–	–
Nc1cccc2cc3ccccc3cc12	–	116	–
Clc1cc2oc3cc(Cl)c(Cl)c(Cl)c3c2c(Cl)c1Cl	–	–	log10 Koa: 10.9
C=CC(C)(O)CC (stereo not given)	118	–	–

SMILES	boiling point [°C]	melting point [°C]	further results
Oc1c(Cl)cccc1-c1ccccc1	–	6	–
Nc1ccc(Nc2ccc([N+](=O)[O-])cc2[N+](=O)[O-])cc1	–	188	log10 vapour pressure (mmHg): -10.2
CCCCCCCCCCCCOc1ccc(C(=O)O)cc1	–	95	–
O=C1c2ccccc2C(=O)N1c1ccccc1	–	210	–
Cc1ccc2cccc(O)c2n1	267	73.8	–
CCCCCC(O)c1ccc(O)c(O)c1 (stereo not given)	–	109	–
CCCCCCCC/C=C\CCCCCCCCO	–	–	ready biodegradability: readily biodegradable
Cc1csc(N)n1	–	45.5	–
Cc1ccc(Oc2ccc(C)cc2)cc1	285	51	–
O=C(c1ccccc1)c1cccc([N+](=O)[O-])c1	–	95	–
CC(=O)OCC1CCCO1 (stereo not given)	193	–	–
O=C1c2ccccc2C(=O)C1(CN1CCOCC1)c1ccccc1	–	88	–
CCc1ccc(C)cc1C	188	-62.9	log10 biodegradation half-life (days): 0.602; log10 vapour pressure (mmHg): -0.0685
CCOCCOCC	119	-74	log10 vapour pressure (mmHg): 1.53
CC(=O)CCC(C)C	144	-74	log10 vapour pressure (mmHg): 0.761
O=[N+]([O-])c1ccc(SCl)c([N+](=O)[O-])c1	–	99	–
CC(=O)[C@H]1CC[C@H]2[C@@H]3CC=C4C[C@@H](O)CC[C@]4(C)[C@H]3CC[C@]12C	–	192	–
O=C(OCC(=O)N1CCCCC1)c1ccccc1	–	88	–
Cc1cnc(NS(=O)(=O)c2ccc(N)cc2)nc1	–	262	–
Brc1cn[nH]c1	255	94.5	–
O=C(O)c1cccc(I)c1	–	188	–

SMILES	boiling point [°C]	melting point [°C]	further results
Clc1ccc2c(c1)oc1c(Cl)cccc12	–	–	log10 biotransformation half-life (days): 0.58
OCc1cc(Cl)cc(Cl)c1	–	80.5	–
O=[N+]([O-])c1c(O)ccc2ccccc12	–	104	–
O=[N+]([O-])c1c(Cl)ncnc1Cl	–	102	–
O=C(c1ccc(F)cc1)c1ccc(F)cc1	–	104	–
Cc1cccc(C(C)C)c1O	226	-14.5	–
CC1(C)CC[C@]2(C)CC[C@]3(C)C(=CC[C@@H]4[C@@]5(C)CC[C@H](O)C(C)(C)[C@@H]5CC[C@]43C)[C@@H]2C1	–	197	–
CC1(C)O[C@@H]2C[C@H]3[C@@H]4C[C@H](F)C5=CC(=O)C=C[C@]5(C)[C@@]4(F)[C@@H](O)C[C@]3(C)[C@]2(C(=O)CO)O1	–	266	–
ClCCCOc1ccccc1	250	12	–
CCOC(=O)C(C(=O)OCC)=C(C(=O)OCC)C(=O)OCC	–	58	–
CCCCCCCCn1sccc1=O	–	–	log10 vapour pressure (mmHg): -4.43
ClCC(Cl)Cl	114	-36.6	log10 Henry constant (atm·m³/mol): -3.08; log10 Koa: 3.4; log10 Koc (L/kg): 1.89; log10 vapour pressure (mmHg): 1.36; ready biodegradability: not readily biodegradable; log10 BCF: 0.7; log10 biotransformation half-life (days): -1.01
C#CC=CC=C	83.5	-81	–
CC(C)(O)C(=O)O	212	82.5	log10 vapour pressure (mmHg): -2.06
CCCCS(=O)(=O)CCCC	291	45	–
NNS(=O)(=O)c1ccc(Oc2ccc(S(=O)(=O)NN)cc2)cc1	–	–	ready biodegradability: not readily biodegradable
c1ccc(C(=C(c2ccccc2)c2ccccc2)c2ccccc2)cc1	420	225	–
CCCCCCCCCCCCCCCCCCCC1CCCCC1	420	45	–
O=C(O)c1cc(O)cc(C(=O)O)c1	–	293	–
C[C@@]12CCC[C@H]1[C@@H]1CC[C@H]3CCCC[C@]3(C)[C@H]1CC2	–	64.6	–
O=C(NCO)NS(=O)(=O)c1ccc(NC(=O)c2ccccc2C(=O)O)cc1	–	162	–

From the OPERA property sets (Mansouri et al. 2018)
